The structures appear in SMILES notation.

T1 sequence (P04629 33-796): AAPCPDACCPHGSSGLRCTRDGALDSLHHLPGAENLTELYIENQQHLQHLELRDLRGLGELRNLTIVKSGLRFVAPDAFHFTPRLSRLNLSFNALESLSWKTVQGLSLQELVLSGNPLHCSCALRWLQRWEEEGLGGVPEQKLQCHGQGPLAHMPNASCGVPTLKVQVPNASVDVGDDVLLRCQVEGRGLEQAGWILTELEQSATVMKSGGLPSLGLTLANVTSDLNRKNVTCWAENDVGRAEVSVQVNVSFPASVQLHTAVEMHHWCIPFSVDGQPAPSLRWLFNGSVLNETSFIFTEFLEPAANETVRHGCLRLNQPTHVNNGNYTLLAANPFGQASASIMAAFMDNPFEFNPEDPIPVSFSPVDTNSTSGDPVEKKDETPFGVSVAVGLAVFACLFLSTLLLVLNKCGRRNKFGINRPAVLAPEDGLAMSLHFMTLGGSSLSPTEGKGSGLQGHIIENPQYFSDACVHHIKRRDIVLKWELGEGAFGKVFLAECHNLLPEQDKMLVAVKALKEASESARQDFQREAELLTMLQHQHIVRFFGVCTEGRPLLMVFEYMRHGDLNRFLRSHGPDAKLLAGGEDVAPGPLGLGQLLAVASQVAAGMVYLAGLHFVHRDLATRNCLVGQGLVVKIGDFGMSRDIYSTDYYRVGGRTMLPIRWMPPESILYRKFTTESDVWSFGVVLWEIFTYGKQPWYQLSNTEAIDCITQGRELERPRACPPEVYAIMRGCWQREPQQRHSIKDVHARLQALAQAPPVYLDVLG

The first assay addresses T1, TrkA kinase (Homo sapiens, UniProt P04629).
T1 construct: purchased Upstate, USA
The assay can be described thus: In vitro TrkA inhibitory activity using TR-FRET assay. As to conditions: 5 ng TrkA, 500 μM ATP, both bounds given in nm, read-out: TrkA inhibitory activity in-vitro IC50. The class given is biochemical. The protocol:
Determination of In Vitro TrkA Inhibitory Activity Using TR-FRET Assay
Compounds were screened in the TR-FRET assay with TrkA kinase. 5 ng of TrkA [Upstate, USA] kinase was used for assay. The compound was incubated with the kinase for 30 minutes at 20-35° C. After the incubation, substrate mix [40 nM Ultra light poly GT (Perkin Elmer, USA) and 500 μM ATP] was added. The above reaction was stopped by the addition of 40 mM EDTA after 30 minutes. The Eu-labelled antiphospho-tyrosine antibody [Perkin Elmer, USA] was added at 0.5 nM and the fluorescence emission at 615 nm/665 nm [excitation at 340 nm] was measured. The compounds were initially screened at 100 nM, 1 μM and 10 μM concentrations. The potent compounds with >25% inhibition at 1 μM of TrkA were taken for the full dose response studies. The final DMSO concentration in the assay was […]. For IC50 determination, ⅓^rd serial dilution was made from the 20 mM DMSO stock solution. 2 μl of these were transferred to the test wells containing 20 μl reaction mixture [Total reaction volume 22 μl]. The fluorescence was measured in Perkin Elmer Wallac 1420 Multilabel Counter Victor 3. The IC50 was determined by fitting the dose response data to a sigmoidal curve fitting equation using GraphPad Prism software version 5.
A general note: TR-FRET usually uses a lanthanide donor and a delayed reading to cut background.
Broadly, the IC50 is the concentration at which inhibition is half-maximal. Take `CC(C)(C)S(=O)(=O)NC(=O)c1cnn2ccc(N3CCC[C@@H]3c3cc(F)cc(F)c3)cc12` [Example 66, (R)-N-(tert-butylsulfonyl)-5-(2-(3,5-difluorophenyl)pyrrolidin-1-yl)pyrazolo[1,5-a]pyridine-3-carboxamide]: the IC50 is 0.1 to 0.5 µM. Still for that read-out and setting: to `CC(C)(C)CS(=O)(=O)NC(=O)c1cnn2ccc(N3CCC[C@@H]3c3cc(F)ccc3F)cc12` [Example 37, (R)-5-(2-(2,5-difluorophenyl)pyrrolidin-1-yl)-N-(neopentylsulfonyl) pyrazolo[1,5-a]pyridine-3-carboxamide] belongs 0.1 to 0.5 µM; to `O=C(NS(=O)(=O)c1ccc(N2CCOCC2)cc1)c1cnn2ccc(N3CCC[C@@H]3c3cc(F)ccc3F)cc12` [Example 29, (R)-5-(2-(2,5-difluorophenyl)pyrrolidin-1-yl)-N-((4-morpholinophenyl)sulfonyl) pyrazolo[1,5-a]pyridine-3-carboxamide], 0.1 to 0.5 µM.

Turning to `CC(C)(C)S(=O)(=O)NC(=O)c1cnn2ccc(N3CCC[C@@H]3c3cc(F)ccc3OCC(F)(F)F)cc12` [Example 49, (R)-N-(tert-butylsulfonyl)-5-(2-(5-fluoro-2-(2,2,2-trifluoroethoxy)phenyl)pyrrolidin-1-yl)pyrazolo[1,5-a]pyridine-3-carboxamide], the IC50 was 0.1 to 0.5 µM. The same measure, in the same setting: the value for `CC(C)CS(=O)(=O)NC(=O)c1cnn2ccc(N3CCC[C@@H]3c3cc(F)ccc3F)cc12` [Example 14, (R)-5-(2-(2,5-difluorophenyl)pyrrolidin-1-yl)-N-(isobutylsulfonyl)pyrazolo[1,5-a] pyridine-3-carboxamide] was 0.1 to 0.5 µM; that for `CC(C)(C)S(=O)(=O)NC(=O)c1cnn2ccc(N3CCC[C@@H]3c3cc(F)ccc3F)c(F)c12` [Example 61, (R)-N-(tert-butylsulfonyl)-5-(2-(2,5-difluorophenyl)pyrrolidin-1-yl)-4-fluoro pyrazolo[1,5-a] pyridine-3-carboxamide] was 0.1 to 0.5 µM; that for `O=C(NS(=O)(=O)C1CC1)c1cnn2ccc(N3CCC[C@@H]3c3cc(F)ccc3F)cc12` [Example 5, (R)-N-(cyclopropylsulfonyl)-5-(2-(2,5-difluorophenyl)pyrrolidin-1-yl)pyrazolo[1,5-a]pyridine-3-carboxamide] was 0.1 to 0.5 µM. For `O=C(NS(=O)(=O)c1ccc(-n2cncn2)nc1)c1cnn2ccc(N3CCC[C@@H]3c3cc(F)ccc3F)cc12` [Example 27, (R)-N-((6-(1H-1,2,4-triazol-1-yl)pyridin-3-yl)sulfonyl)-5-(2-(2,5-difluorophenyl)pyrrolidin-1-yl)pyrazolo[1,5-a]pyridine-3-carboxamide], the IC50 was in the range of 0.1 to 0.5 µM. Still for that read-out and setting: to `O=C(NS(=O)(=O)C1CCCC1)c1cnn2ccc(N3CCC[C@@H]3c3cc(F)ccc3F)cc12` [Example 13, (R)-N-(cyclopentylsulfonyl)-5-(2-(2,5-difluorophenyl)pyrrolidin-1-yl)pyrazolo[1,5-a] pyridine-3-carboxamide] belongs 0.1 to 0.5 µM. Still for that read-out and setting: to `CC(C)(C)S(=O)(=O)NC(=O)c1cnn2ccc(N3CCC[C@@H]3c3cc(F)cc4c3OCCO4)cc12` [Example 130, Sodium (R)-(tert-butylsulfonyl)(5-(2-(7-fluoro-2,3-dihydrobenzo[b][1,4]dioxin-5-yl)pyrrolidin-1-yl)pyrazolo[1,5-a]pyridine-3-carbonyl)amide] belongs 0.1 to 0.5 µM; to `O=C(NS(=O)(=O)C1CCOCC1)c1cnn2ccc(N3CCC[C@@H]3c3cc(F)ccc3F)cc12` [Example 22, (R)-5-(2-(2,5-difluorophenyl)pyrrolidin-1-yl)-N-((tetrahydro-2H-pyran-4-yl)sulfonyl) pyrazolo[1,5-a]pyridine-3-carboxamide], 0.1 to 0.5 µM.

The assay is the same for the next values; noted with them: 5 ng TrkA, 500 μM ATP, lower bound in nm [sic], upper bound in μM, read-out: TrkA inhibitory activity in-vitro IC50.
For the compound `CC(C)(C)S(=O)(=O)NC(=O)c1cnn2ccc(N3C[C@H](O)C[C@@H]3c3cc(F)ccc3F)cc12` [Example 48, N-(tert-butylsulfonyl)-5-((2R,4R)-2-(2,5-difluorophenyl)-4-hydroxypyrrolidin-1-yl)pyrazolol[1,5-a]pyridine-3-carboxamide], the IC50 lay within 0.5 to 1 µM.

As for `O=C(NS(=O)(=O)c1ccc(F)cc1)c1cnn2ccc(N3CCC[C@@H]3c3cc(F)cc(F)c3)cc12` [Example 69, (R)-5-(2-(3,5-difluorophenyl)pyrrolidin-1-yl)-N-((4-fluorophenyl)sulfonyl)pyrazolo[1,5-a]pyridine-3-carboxamide], the IC50 was in the range of 0.5 to 1 µM. Consider `COCCOc1cc(F)cc([C@H]2CCCN2c2ccn3ncc(C(=O)NS(=O)(=O)C(C)(C)C)c3c2)c1` [Example 67, (R)-N-(tert-butylsulfonyl)-5-(2-(3-fluoro-5-(2-methoxyethoxy)phenyl)pyrrolidin-1-yl) pyrazolo[1,5-a]pyridine-3-carboxamide], for which the IC50 lay in the range of 0.5 to 1 µM.

Still in this assay, the particulars now being: 5 ng TrkA, 500 μM ATP, read-out: TrkA inhibition in-vitro IC50.
`O=C(NS(=O)(=O)N1CCCCC1)c1cnn2ccc(N3CCC[C@@H]3c3cc(F)ccc3F)cc12` [Example 89, (R)-5-(2-(2,5-difluorophenyl)pyrrolidin-1-yl)-N-(piperidin-1-ylsulfonyl)pyrazolo[1,5-a] pyridine-3-carboxamide]: the IC50 was at most 0.05 µM. Regarding `CC(C)S(=O)(=O)NC(=O)c1cnn2ccc(N3C[C@@H](F)C[C@@H]3c3cccc(F)c3)c(F)c12` [Example 141, Sodium (4-fluoro-5-((2R,4S)-4-fluoro-2-(3-fluorophenyl)pyrrolidin-1-yl)pyrazolo[1,5-a]pyridine-3-carbonyl) (isopropylsulfonyl)amide], the IC50 is at most 0.05 µM. The same measure, in the same setting: the value for `CCN(C)S(=O)(=O)NC(=O)c1cnn2ccc(N3CCC[C@@H]3c3cc(F)cc(F)c3OC)cc12` [Example 90, (R)-5-(2-(3,5-difluoro-2-methoxyphenyl)pyrrolidin-1-yl)-N-(N-ethyl-N-methylsulfamoyl) pyrazolo[1,5-a]pyridine-3-carboxamide] was at most 0.05 µM; that for `CC(C)(C)S(=O)(=O)NC(=O)c1cnn2ccc(N3C[C@@H](F)C[C@@H]3c3cc(F)ccc3F)cc12` [Example 128, Sodium (tert-butylsulfonyl)(5-((2R,4S)-2-(2,5-difluorophenyl)-4-fluoropyrrolidin-1-yl)pyrazolo[1,5-a]pyridine-3-carbonyl)amide] was at most 0.05 µM; that for `CC(C)S(=O)(=O)NC(=O)c1cnn2ccc(N3CCC[C@@H]3c3cc(F)ccc3F)cc12` [Example 7, (R)-5-(2-(2,5-difluorophenyl)pyrrolidin-1-yl)-N-(isopropylsulfonyl)pyrazolo[1,5-a] pyridine-3-carboxamide] was at most 0.05 µM. On to `CCN(CC)S(=O)(=O)NC(=O)c1cnn2ccc(N3CCC[C@@H]3c3cc(F)ccc3F)cc12` [Example 81, (R)-N-(N,N-diethylsulfamoyl)-5-(2-(2,5-difluorophenyl)pyrrolidin-1-yl)pyrazolo[1,5-a]pyridine-3-carboxamide], for which the IC50 was at most 0.05 µM.

Take `CN(C)S(=O)(=O)NC(=O)c1cnn2ccc(N3CCC[C@@H]3c3cccc(F)c3)c(F)c12` [Example 138, Sodium (R)-(N,N-dimethylsulfamoyl)(4-fluoro-5-(2-(3-fluorophenyl)pyrrolidin-1-yl)pyrazolo[1,5-a]pyridine-3-carbonyl)amide]: the IC50 was at most 0.05 µM.

For `CN(CC1CC1)S(=O)(=O)NC(=O)c1cnn2ccc(N3CCC[C@@H]3c3cc(F)ccc3F)cc12` [Example 80, (R)-N-(N-(cyclopropylmethyl)-N-methylsulfamoyl)-5-(2-(2,5-difluorophenyl)pyrrolidin-1-yl)pyrazolo[1,5-a]pyridine-3-carboxamide], the IC50 was at most 0.05 µM.

Staying with this assay, now noted: 5 ng TrkA, 500 μM ATP, read-out: TrkA inhibitory activity in-vitro IC50.
Consider `CC(C)(C)S(=O)(=O)NC(=O)c1cnn2ccc(N3CC(F)C[C@@H]3c3cc(F)ccc3F)cc12` (stereo partly drawn) [Example 135, Sodium (tert-butylsulfonyl)(5-((2R)-2-(2,5-difluorophenyl)-4-fluoropyrrolidin-1-yl)pyrazolo[1,5-a]pyridine-3-carbonyl)amide], for which the IC50 was 1 to 10 µM. Same read-out and setting: the value for `Cc1ncc(S(=O)(=O)NC(=O)c2cnn3ccc(N4CCC[C@@H]4c4cc(F)ccc4F)cc23)n1C` [Example 16, (R)-5-(2-(2,5-difluorophenyl)pyrrolidin-1-yl)-N-((1,2-dimethyl-1H-imidazol-5-yl)sulfonyl)pyrazolo[1,5-a] pyridine-3-carboxamide] was 1 to 10 µM.

With `CC(C)(C)S(=O)(=O)NC(=O)c1cnn2ccc(N3CC(F)(F)CC3c3cc(F)ccc3F)cc12` (single isomer, unassigned) [Example 55], the IC50 was in the range of 1 to 10 µM. For `Cn1cnc(S(=O)(=O)NC(=O)c2cnn3ccc(N4CCC[C@@H]4c4cc(F)ccc4F)cc23)c1` [Example 18, (R)-5-(2-(2,5-difluorophenyl)pyrrolidin-1-yl)-N-((1-methyl-1H-imidazol-4-yl)sulfonyl) pyrazolo[1,5-a]pyridine-3-carboxamide], the IC50 was 1 to 10 µM. Consider `CC(C)(C)S(=O)(=O)NC(=O)c1cnn2ccc(N3C[C@@H](F)CC3c3cc(F)ccc3F)cc12` (single isomer, unassigned) [Example 53], for which the IC50 lay within 1 to 10 µM.

Source of the values: patent publication US10047087B2, “Substituted pyrazolo[1,5-A] pyridine as tropomyosin receptor kinase (TrK) inhibitors” (Dr. Reddy's Laboratories Ltd., priority 2011, dated 2018).
